According to patent US8058276B2, “Heterobicyclic carboxamides as inhibitors for kinases” (Novartis AG, priority 2006, dated 2011):

Row | SMILES | melting point [°C]
1 | O=C(Nc1ccc(F)c(C(F)(F)F)c1)c1csc2cc(Oc3cc(CO)ncn3)ccc12 [Example 19, 6-(6-Hydroxymethyl-pyrimidin-4-yloxy)-benzo[b]thiophene-3-carboxylic acid (4-fluoro-3-trifluoromethyl-phenyl)-amide] | 138 to 140
2 | CN1CCN(Cc2ccc(NC(=O)c3nsc4cc(Oc5ccnc(N)n5)ccc34)cc2C(F)(F)F)CC1 [Example 7, 6-(2-Amino-pyrimidin-4-yloxy)-benzo[d]isothiazole-3-carboxylic acid [4-(4-methyl-piperazin-1-ylmethyl)-3-trifluoromethyl-phenyl]-amide] | 215 to 217
3 | Nc1nccc(Oc2ccc3c(C(=O)Nc4cccc(C(F)(F)F)c4)cnn3c2)n1 [Example 15, 6-(2-Amino-pyrimidin-4-yloxy)-pyrazolo[1,5-a]pyridine-3-carboxylic acid (3-trifluoromethyl-phenyl)-amide] | 102 to 104
4 | O=C(Nc1cccc(C(F)(F)F)c1)c1coc2cc(Oc3cc(CO)ncn3)ccc12 [Example 22, 6-(6-Hydroxymethyl-pyrimidin-4-yloxy)-benzofuran-3-carboxylic acid (3-trifluoromethyl-phenyl)-amide] | 181 to 182
5 | Nc1nccc(Oc2ccc3c(C(=O)Nc4ccc(F)c(C(F)(F)F)c4)nsc3c2)n1 [Example 6, 6-(2-Amino-pyrimidin-4-yloxy)-benzo[d]isothiazole-3-carboxylic acid (4-fluoro-3-trifluoromethyl-phenyl)-amide] | 237 to 239
